According to ChEMBL document CHEMBL1201862, “PubChem BioAssay data set” (2004):
One block for each compound: values may come before it. Active and inactive are the calls of the source.

Key:
[1] = target: Sphingosine 1-phosphate receptor 1 (Homo sapiens, UniProt P21453); test: Fluorescence-based counterscreen assay for S1P4 agonists: Cell-based dose response high throughput screening assay to identify agonists of the Sphingosine 1-Phosphate Receptor 1 (S1P1). [Related pubchem assays (depositor defined):AID1509, AID1523, AID1801, AID463107, AID463118, AID463119, AID463122, AID463123, AID463129, AID463225, AID504400, AID504460]; assay type: functional
Cytochrome P450 1A2 = target: T1, Cytochrome P450 1A2 (Homo sapiens, UniProt P05177);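 further: PubChem cytochrome P450 panel assay, CYP1A2 panel member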
T1 sequence (P05177 whole entry): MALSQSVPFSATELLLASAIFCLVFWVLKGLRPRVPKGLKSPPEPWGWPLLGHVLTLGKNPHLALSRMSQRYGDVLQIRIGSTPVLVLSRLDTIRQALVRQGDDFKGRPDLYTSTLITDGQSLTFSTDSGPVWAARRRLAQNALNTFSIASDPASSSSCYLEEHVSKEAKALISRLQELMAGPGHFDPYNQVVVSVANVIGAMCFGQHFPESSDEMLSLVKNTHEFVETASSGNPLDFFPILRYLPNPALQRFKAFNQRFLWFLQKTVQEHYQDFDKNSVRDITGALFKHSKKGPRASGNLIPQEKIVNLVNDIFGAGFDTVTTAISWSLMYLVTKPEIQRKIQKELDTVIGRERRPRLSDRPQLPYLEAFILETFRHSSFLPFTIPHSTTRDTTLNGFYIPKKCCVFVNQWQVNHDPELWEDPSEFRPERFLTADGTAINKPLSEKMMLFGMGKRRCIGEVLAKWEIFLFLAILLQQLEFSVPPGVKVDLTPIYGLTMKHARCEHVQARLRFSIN

[2] = target: T2, Sphingosine 1-phosphate receptor 4 (Homo sapiens, UniProt O95977); test: Fluorescence dose response cell-based high throughput screening assay for agonists of the Sphingosine 1-Phosphate Receptor 4 (S1P4). [Related pubchem assays: 1509 (Primary screen.), 1523 (Confirmation screen in triplicates.)]; assay type: functional
T2 sequence (O95977 whole entry): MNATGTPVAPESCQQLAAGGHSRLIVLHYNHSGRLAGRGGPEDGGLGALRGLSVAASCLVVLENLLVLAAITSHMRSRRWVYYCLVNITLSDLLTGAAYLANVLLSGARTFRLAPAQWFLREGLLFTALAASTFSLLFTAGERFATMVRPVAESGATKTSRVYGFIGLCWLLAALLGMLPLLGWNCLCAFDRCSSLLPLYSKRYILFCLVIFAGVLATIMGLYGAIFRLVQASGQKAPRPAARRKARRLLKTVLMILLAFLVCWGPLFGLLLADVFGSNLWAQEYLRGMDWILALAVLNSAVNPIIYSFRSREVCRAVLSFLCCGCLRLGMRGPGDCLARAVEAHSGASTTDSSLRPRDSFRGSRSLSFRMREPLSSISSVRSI

Cytochrome P450 2C19 = Cytochrome P450 2C19 (Homo sapiens, UniProt P33261); test: Cytochrome panel assay with activity outcomes. Panel member name: p450-cyp2c19 Compounds with AC50 equal or less than 10 uM are considered active; assay type: functional; conditions: read-out: AC50
SUMO E1/E2 = SUMO E1/E2 (Homo sapiens, UniProt P63279+Q9UBE0+Q9UBT2); test: SAR analysis of SUMOylation using HTRF in an in-Vitro dose response assay. [Related pubchem assays (depositor defined):AID2006, AID2011, AID2018, AID2069, AID2658]; assay type: functional
Chain of SUMO E1/E2 (Q9UBE0 whole entry): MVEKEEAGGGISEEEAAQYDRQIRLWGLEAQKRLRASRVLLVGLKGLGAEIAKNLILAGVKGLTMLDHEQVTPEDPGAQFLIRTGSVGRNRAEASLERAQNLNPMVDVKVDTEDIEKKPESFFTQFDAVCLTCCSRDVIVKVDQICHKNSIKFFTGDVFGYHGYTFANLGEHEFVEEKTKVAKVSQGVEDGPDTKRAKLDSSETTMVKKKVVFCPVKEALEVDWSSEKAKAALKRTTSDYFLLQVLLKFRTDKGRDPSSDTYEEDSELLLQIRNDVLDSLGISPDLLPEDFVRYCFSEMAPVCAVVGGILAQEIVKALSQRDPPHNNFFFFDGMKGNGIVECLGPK
Chain of SUMO E1/E2 (Q9UBT2 whole entry): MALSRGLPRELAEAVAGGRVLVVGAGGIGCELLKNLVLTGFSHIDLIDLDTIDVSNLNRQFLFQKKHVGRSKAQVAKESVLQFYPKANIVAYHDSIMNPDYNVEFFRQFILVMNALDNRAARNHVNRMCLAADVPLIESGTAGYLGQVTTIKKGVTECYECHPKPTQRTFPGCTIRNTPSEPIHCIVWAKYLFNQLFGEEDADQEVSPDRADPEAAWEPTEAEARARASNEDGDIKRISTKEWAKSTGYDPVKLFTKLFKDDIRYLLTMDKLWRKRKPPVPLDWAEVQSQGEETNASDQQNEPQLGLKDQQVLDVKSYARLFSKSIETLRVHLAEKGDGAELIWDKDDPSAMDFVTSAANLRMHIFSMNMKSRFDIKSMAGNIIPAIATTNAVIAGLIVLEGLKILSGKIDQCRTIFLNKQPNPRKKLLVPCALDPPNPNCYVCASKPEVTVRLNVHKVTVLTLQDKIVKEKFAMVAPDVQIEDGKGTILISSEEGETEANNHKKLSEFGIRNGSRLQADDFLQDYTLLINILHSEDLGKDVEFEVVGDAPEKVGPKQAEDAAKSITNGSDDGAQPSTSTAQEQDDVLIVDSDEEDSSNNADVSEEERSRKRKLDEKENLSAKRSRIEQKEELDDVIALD
Chain of SUMO E1/E2 (P63279 whole entry): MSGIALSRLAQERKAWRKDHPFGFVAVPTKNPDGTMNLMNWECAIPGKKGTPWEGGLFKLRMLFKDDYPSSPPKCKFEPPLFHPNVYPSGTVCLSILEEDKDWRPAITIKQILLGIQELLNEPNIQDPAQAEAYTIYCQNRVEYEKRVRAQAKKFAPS

[3] = target: Kappa-type opioid receptor (Homo sapiens, UniProt P41145); test: SAR analysis of small molecule agonists of the kappa opioid receptor via a luminescent beta-arrestin assay - Set 3. [Related pubchem assays (depositor defined):AID1777, AID1785, AID1786, AID1966, AID2133, AID2136, AID2284, AID2500]; assay type: functional
Chain of Kappa-type opioid receptor (P41145 whole entry): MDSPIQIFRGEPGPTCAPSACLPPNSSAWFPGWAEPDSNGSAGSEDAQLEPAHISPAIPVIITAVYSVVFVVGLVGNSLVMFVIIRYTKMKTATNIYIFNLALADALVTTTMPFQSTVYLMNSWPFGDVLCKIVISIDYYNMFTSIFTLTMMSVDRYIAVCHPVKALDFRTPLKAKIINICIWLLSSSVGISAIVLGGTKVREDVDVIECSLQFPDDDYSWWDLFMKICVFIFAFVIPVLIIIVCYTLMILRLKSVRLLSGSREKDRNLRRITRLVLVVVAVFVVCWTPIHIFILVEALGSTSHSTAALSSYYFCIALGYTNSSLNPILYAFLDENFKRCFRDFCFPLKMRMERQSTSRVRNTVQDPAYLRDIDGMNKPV

[4] = target: T3, Voltage-gated N-type calcium channel alpha-1B subunit/Amyloid beta A4 precursor protein-binding family A member 1 (Homo sapiens, UniProt Q00975+Q02410); assay type: protein assay
T3 sequence (Q00975 whole entry): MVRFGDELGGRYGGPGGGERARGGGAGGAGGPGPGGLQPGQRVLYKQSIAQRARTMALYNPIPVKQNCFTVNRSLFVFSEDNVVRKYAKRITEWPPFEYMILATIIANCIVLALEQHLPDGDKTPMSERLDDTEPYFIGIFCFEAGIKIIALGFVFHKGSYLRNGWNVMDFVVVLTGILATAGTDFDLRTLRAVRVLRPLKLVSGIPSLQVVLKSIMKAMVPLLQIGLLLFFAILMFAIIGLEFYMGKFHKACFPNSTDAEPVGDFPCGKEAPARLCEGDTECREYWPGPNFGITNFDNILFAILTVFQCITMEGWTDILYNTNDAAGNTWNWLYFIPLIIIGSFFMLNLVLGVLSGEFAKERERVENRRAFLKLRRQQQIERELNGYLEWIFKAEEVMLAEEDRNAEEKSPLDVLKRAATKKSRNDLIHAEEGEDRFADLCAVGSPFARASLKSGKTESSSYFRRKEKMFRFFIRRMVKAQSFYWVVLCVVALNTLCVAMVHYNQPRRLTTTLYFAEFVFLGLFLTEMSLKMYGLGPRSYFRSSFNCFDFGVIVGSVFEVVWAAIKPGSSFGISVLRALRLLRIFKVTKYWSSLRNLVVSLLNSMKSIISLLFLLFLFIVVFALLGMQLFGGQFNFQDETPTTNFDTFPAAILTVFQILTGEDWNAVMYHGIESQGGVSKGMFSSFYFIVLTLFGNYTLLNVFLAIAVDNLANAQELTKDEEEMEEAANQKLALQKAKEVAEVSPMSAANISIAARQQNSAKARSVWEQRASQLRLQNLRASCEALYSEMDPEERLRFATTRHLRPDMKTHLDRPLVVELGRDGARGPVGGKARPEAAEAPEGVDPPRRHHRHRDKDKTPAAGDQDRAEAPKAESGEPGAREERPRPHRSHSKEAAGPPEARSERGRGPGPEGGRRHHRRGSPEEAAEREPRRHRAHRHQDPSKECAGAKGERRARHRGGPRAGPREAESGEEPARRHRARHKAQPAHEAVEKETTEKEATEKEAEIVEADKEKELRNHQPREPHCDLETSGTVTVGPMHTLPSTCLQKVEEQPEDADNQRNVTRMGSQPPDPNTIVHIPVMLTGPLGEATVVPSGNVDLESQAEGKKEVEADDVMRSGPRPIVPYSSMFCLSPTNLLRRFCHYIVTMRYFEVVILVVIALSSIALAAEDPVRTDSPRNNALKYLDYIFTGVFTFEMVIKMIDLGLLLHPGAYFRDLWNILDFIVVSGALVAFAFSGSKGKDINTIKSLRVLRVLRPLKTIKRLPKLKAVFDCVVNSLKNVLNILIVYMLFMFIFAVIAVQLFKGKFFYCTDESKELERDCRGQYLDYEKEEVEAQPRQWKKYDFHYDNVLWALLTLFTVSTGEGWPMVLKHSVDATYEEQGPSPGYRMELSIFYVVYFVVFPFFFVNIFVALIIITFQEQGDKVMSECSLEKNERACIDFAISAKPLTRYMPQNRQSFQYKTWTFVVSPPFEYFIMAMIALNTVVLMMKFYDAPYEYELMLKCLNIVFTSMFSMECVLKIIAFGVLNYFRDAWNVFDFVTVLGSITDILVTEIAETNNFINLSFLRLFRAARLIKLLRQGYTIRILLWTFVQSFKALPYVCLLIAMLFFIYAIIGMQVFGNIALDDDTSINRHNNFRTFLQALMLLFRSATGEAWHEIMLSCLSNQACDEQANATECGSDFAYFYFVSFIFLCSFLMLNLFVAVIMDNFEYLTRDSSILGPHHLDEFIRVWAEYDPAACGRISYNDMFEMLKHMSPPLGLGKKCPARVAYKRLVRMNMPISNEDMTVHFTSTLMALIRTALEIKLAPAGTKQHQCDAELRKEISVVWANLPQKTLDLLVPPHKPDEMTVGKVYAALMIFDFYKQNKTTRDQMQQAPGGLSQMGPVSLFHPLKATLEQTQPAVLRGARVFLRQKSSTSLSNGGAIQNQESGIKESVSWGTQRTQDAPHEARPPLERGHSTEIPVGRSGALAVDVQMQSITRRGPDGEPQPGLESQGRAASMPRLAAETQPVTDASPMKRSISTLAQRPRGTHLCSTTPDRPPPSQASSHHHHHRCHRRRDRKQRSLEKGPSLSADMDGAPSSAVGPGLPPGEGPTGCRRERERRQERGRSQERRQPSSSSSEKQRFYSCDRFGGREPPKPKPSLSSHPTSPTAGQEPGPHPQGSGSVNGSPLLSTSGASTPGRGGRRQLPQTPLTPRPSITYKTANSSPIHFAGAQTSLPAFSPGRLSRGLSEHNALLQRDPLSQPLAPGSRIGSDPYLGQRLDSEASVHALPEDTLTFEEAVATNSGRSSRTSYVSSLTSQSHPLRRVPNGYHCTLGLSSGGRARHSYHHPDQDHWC
T3 sequence (Q02410 whole entry): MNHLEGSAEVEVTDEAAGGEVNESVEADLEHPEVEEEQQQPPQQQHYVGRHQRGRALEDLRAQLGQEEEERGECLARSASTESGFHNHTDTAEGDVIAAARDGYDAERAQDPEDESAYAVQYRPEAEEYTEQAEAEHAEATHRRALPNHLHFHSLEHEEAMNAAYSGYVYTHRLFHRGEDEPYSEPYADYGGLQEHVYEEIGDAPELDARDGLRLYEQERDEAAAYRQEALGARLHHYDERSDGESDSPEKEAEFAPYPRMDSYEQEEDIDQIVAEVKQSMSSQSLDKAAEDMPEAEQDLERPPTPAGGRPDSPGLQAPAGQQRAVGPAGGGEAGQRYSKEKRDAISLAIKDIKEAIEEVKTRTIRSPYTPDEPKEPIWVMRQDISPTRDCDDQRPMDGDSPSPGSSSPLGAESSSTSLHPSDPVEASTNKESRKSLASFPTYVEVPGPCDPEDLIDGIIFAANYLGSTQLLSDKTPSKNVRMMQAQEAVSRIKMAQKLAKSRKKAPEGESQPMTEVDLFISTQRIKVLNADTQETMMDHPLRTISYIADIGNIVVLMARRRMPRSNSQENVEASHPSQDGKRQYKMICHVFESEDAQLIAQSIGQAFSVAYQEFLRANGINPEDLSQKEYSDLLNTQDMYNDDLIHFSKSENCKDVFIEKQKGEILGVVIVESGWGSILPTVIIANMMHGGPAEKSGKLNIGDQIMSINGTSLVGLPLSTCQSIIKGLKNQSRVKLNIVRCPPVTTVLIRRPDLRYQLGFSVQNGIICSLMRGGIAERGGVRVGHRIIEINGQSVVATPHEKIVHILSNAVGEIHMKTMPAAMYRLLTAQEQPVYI

[5] = target: T3, Voltage-gated N-type calcium channel alpha-1B subunit/Amyloid beta A4 precursor protein-binding family A member 1; assay type: protein assay; remark: listed apart in the source
SUMO-activating enzyme [6] = target: T4, SUMO-activating enzyme (Homo sapiens, UniProt Q9UBT2); test: blockers of UBC9-mediated SUMO conjugation – biochemical, AlphaScreen, SUMOylation inhibitor project, confirmation (AID 2018); assay type: functional
T4 sequence (Q9UBE0 whole entry): as the sequence (Q9UBE0 whole entry) above
T4 sequence (Q9UBT2 whole entry): as the sequence (Q9UBT2 whole entry) above

SUMO-activating enzyme [7] = target: T4, SUMO-activating enzyme; test: blockers of SAE1/SAE2–UBC9 SUMO transfer – biochemical, HTRF, uHTS, primary screen (AID 2006); assay type: protein-complex assay

EC50 [1]: > 49.8 µM (inactive) | AC50 (Cytochrome P450 1A2): 5.01 µM (inconclusive) | EC50 [2]: > 49.8 µM (not active) | AC50 (Cytochrome P450 2C19): 0.794 µM (inconclusive)
SMILES: COC(=O)c1c(-n2c(C)cc(C=O)c2C)sc2c1CCCC2

IC50 (SUMO E1/E2): > 100 µM (inactive)
SMILES: S=c1[nH]nc(-c2cc(-c3ccccc3)[nH]n2)n1N=Cc1ccc(Cl)c(Cl)c1

EC50 [3]: > 20 µM (inactive)
SMILES: CCCCN(Cc1cc2cc(Cl)ccc2[nH]c1=O)C(=O)c1cccs1

IC50 [4]: > 50 µM (inactive) | IC50 [5]: > 56.8 µM (not active) | IC50 (SUMO-activating enzyme [6]): 35.1 µM (active) | IC50 (SUMO-activating enzyme [7]): > 100 µM (inactive)
SMILES: O=C(N/N=C/c1ccc([N+](=O)[O-])o1)c1cn2ccc3ccccc3c2n1
